“And” between values parts separate entries of the source, which are not always exact repeats. Equal entries are not always repeated.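 Grown in 96-well plates, cells were treated for 48 hours with each compound at five concentrations. Insufficient inhibition: endpoint recorded as highest concentration tested. Here, GI50 denotes the concentration required for 50% inhibition of growth. TGI is the concentration that stops growth completely.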 A value given as a limit tells only on which side of the number the result lay.

From PubChem BioAssay (NCI) come the findings set out here.

Among the test systems are HCT-116 colon; BT-549 breast; SNB-75 CNS; HOP-92 NSCLC; MCF7 breast; COLO 205 colon; SK-MEL-2 melanoma; M14 melanoma; MALME-3M melanoma; MDA-MB-435.
What all share (experiment): NCI anticancer screen, dose series, 48 h

Consider `O=C1C=CC(=Nc2cccc3c(N=C4C=CC(=O)O4)cccc23)O1`, for which the TGI in the experiment on HCT-116 colon was 53.1 µM; in the experiment with BT-549 breast it was above 100 µM; with SNB-75 CNS, above 100 µM; in the experiment on HOP-92 NSCLC, above 100 µM; in the experiment on MCF7 breast it was above 100 µM; in the experiment on COLO 205 colon, 40.4 µM. Moreover, the TGI in the experiment on SK-MEL-2 melanoma is above 100 µM; with M14 melanoma, 87.8 µM; with MALME-3M melanoma, 42.8 µM; with MDA-MB-435 it was above 100 µM.
For the compound `CC[C@]1(O)CC2CN(CCc3c([nH]c4ccccc34)[C@@](C(=O)OC)(c3cc4c(cc3OC)N(C=O)[C@H]3[C@@](O)(C(=O)OC)[C@H](OC(C)=O)[C@]5(CC)C=CCN6CC[C@]43[C@@H]65)C2)C1` (some centres not stated), the GI50 in the experiment on HCT-116 colon is below 0.005 µM; in the experiment with BT-549 breast it was 0.00665 µM; in the experiment with MCF7 breast, below 0.005 µM; with COLO 205 colon, below 5 nM; in the experiment on SK-MEL-2 melanoma, below 5 nM; in the experiment with M14 melanoma, 6.32 nM. For the same compound, the GI50 in the experiment with MDA-MB-435 is below 5 nM. Besides, the TGI is above 50 µM in the experiment with HCT-116 colon; 0.149 µM in the experiment on BT-549 breast; above 50 µM in the experiment on HOP-92 NSCLC; above 50 µM with MCF7 breast; below 0.005 µM in the experiment with COLO 205 colon; 4.16 µM in the experiment on SK-MEL-2 melanoma. The TGI was 0.679 µM in the experiment on M14 melanoma and below 0.005 µM in the experiment with MDA-MB-435.
For `C(=Nc1cnc2ccccc2c1)c1ccc2ccccc2n1`, the TGI in the experiment on HCT-116 colon, with BT-549 breast, with SNB-75 CNS, in the experiment with HOP-92 NSCLC, in the experiment on MCF7 breast and with COLO 205 colon was above 100 µM throughout. Also, the TGI in the experiment on SK-MEL-2 melanoma, in the experiment on M14 melanoma, in the experiment on MALME-3M melanoma and in the experiment on MDA-MB-435 was above 100 µM each time.
With `C[C@@H](NC(=O)c1ncnc(N)c1Cl)c1ncc(C(=O)Nc2cc(C(F)(F)F)c(Cl)cn2)s1`, the GI50 in the experiment with HCT-116 colon was 3.17 µM; in the experiment with BT-549 breast, 22.1 µM; with SNB-75 CNS, 23.1 µM; in the experiment on HOP-92 NSCLC, 1.46 µM; in the experiment with MCF7 breast it was 19.9 µM; with COLO 205 colon, 616 nM. In addition, the GI50 in the experiment on SK-MEL-2 melanoma is 2080 nM; in the experiment on M14 melanoma, 497 nM; in the experiment with MALME-3M melanoma it was 0.135 µM; in the experiment with MDA-MB-435, 2270 nM. For the same compound, the TGI in the experiment with HCT-116 colon is above 68.9 µM; in the experiment on BT-549 breast, 81.2 µM; in the experiment on SNB-75 CNS, 94.4 µM; in the experiment with HOP-92 NSCLC, 9.44 µM; with MCF7 breast, 66.1 µM; in the experiment on COLO 205 colon it was 24.3 µM. In addition, the TGI in the experiment with SK-MEL-2 melanoma was found to be 8.04 µM; with M14 melanoma, 13.6 µM; in the experiment on MALME-3M melanoma, 0.624 µM; with MDA-MB-435 it was 34.3 µM.
Turning to `C/C(=N/O)c1ccc2c(c1)/C(=N/O)c1ccccc1-2`, the GI50 is 20.7 µM in the experiment with HCT-116 colon; 21.4 µM in the experiment with BT-549 breast; 17.7 µM in the experiment with SNB-75 CNS; 27.8 µM with HOP-92 NSCLC; 15.3 µM in the experiment on MCF7 breast; 18100 nM in the experiment on COLO 205 colon. The GI50 in the experiment with SK-MEL-2 melanoma is 23100 nM; in the experiment with M14 melanoma, 21900 nM; with MALME-3M melanoma it was 21.9 µM; in the experiment on MDA-MB-435, 18700 nM. The TGI in the experiment with HCT-116 colon was determined as 38.5 µM; with BT-549 breast it was 50.4 µM; in the experiment on SNB-75 CNS, 44.2 µM; in the experiment with HOP-92 NSCLC, 60 µM; in the experiment on MCF7 breast, 35.8 µM; in the experiment with COLO 205 colon, 35.6 µM. Further, the TGI in the experiment with SK-MEL-2 melanoma was 48 µM; in the experiment on M14 melanoma, 40.6 µM; with MALME-3M melanoma it was 46 µM; with MDA-MB-435 it was 39.4 µM.
For `O=C1c2ccccc2C(=O)c2c1ccc1c(=O)n(-c3ccccc3C(F)(F)F)nnc21`, the GI50 in the experiment with HCT-116 colon is 1.85 µM; with BT-549 breast, 1.81 µM; in the experiment with SNB-75 CNS, 1.56 µM; in the experiment on HOP-92 NSCLC, 2.08 µM; in the experiment on MCF7 breast it was 1.86 µM; in the experiment with COLO 205 colon, 1830 nM. Moreover, the GI50 is 2640 nM with SK-MEL-2 melanoma, 1.27 µM with MALME-3M melanoma and 1660 nM in the experiment on MDA-MB-435. The TGI with HCT-116 colon amounted to 10.5 µM; with BT-549 breast it was 6.8 µM; in the experiment with SNB-75 CNS, 15.5 µM; with HOP-92 NSCLC, 5.94 µM; in the experiment on MCF7 breast it was 4.64 µM; in the experiment with COLO 205 colon it was 4.28 µM. The values for the TGI in the experiment on SK-MEL-2 melanoma, with MALME-3M melanoma and in the experiment with MDA-MB-435 were 7.61 µM, 2.54 µM and 3.1 µM, respectively.
`O=C(/C=C/C(Cl)(Cl)Cl)Nc1ccc(Cl)cc1`: the TGI in the experiment on HCT-116 colon was found to be 17.6 µM; with BT-549 breast, 31.1 µM; with SNB-75 CNS, 11.1 µM; with HOP-92 NSCLC it was 4.08 µM; in the experiment with MCF7 breast it was 34.3 µM; in the experiment with COLO 205 colon it was 5.16 µM. Besides, the TGI in the experiment with SK-MEL-2 melanoma was 18.1 µM; in the experiment with M14 melanoma, 11.7 µM; in the experiment on MALME-3M melanoma, 18.9 µM; in the experiment on MDA-MB-435, 12.4 µM.
For `CN(C)C=NC1CCC(C(C)(C)C)CC1` (configuration not stated), the TGI in the experiment on HCT-116 colon was 31.9 µM; in the experiment on BT-549 breast it was 34 µM; in the experiment with SNB-75 CNS, 34.9 µM; in the experiment with HOP-92 NSCLC it was 34.6 µM; in the experiment on MCF7 breast, above 100 µM; in the experiment on COLO 205 colon, 33.2 µM. In addition, the TGI with SK-MEL-2 melanoma amounted to 35.4 µM; in the experiment with M14 melanoma, 33.6 µM; with MALME-3M melanoma it was 34.9 µM; in the experiment on MDA-MB-435 it was 33.3 µM.
On to `CN(C)Cc1ccc(C(C)(C)C)cc1-c1cc(C(C)(C)C)ccc1CN(C)C`, for which the TGI is above 100 µM in the experiment with HCT-116 colon; above 100 µM in the experiment on BT-549 breast; above 100 µM in the experiment on SNB-75 CNS; above 100 µM with HOP-92 NSCLC; above 100 µM in the experiment with MCF7 breast; 37.9 µM in the experiment on COLO 205 colon. For the same compound, the TGI in the experiment on SK-MEL-2 melanoma is above 100 µM; with M14 melanoma, 41.6 µM; in the experiment on MALME-3M melanoma, 79.6 µM; with MDA-MB-435, above 100 µM.
Consider `CC(C)(C)NC(=O)[C@H]1CC[C@H]2[C@@H]3CC[C@H]4NC(=O)C=C[C@]4(C)[C@H]3CC[C@]12C`, for which the GI50 in the experiment on HCT-116 colon was above 100 µM; with BT-549 breast, 81.9 µM and > 100 µM; in the experiment with SNB-75 CNS, above 100 µM; with HOP-92 NSCLC it was 30.3 µM; in the experiment with MCF7 breast it was above 100 µM; in the experiment on COLO 205 colon it was above 100000 nM. The GI50 in the experiment on M14 melanoma was above 100000 nM; in the experiment with MALME-3M melanoma, 74.5 µM and > 100 µM; in the experiment on MDA-MB-435 it was above 100000 nM. The TGI with HCT-116 colon, with BT-549 breast, in the experiment with SNB-75 CNS, in the experiment with HOP-92 NSCLC, with MCF7 breast and in the experiment with COLO 205 colon was above 100 µM each time. The TGI in the experiment with SK-MEL-2 melanoma, in the experiment with M14 melanoma, with MALME-3M melanoma and in the experiment with MDA-MB-435 was above 100 µM in each case.
